Like-named read-outs stand apart in the source and are kept apart here.
Experiments:
[1] = target: T1, cholesterol esterase (cholesterol ester hydrolase; CEH) (Bos taurus, UniProt P30122); test: Inhibition of cholesteryl ester formation by cholesterol esterase (CEH), in vitro; assay type: biochemical, bovine
T1 construct: purchased Sigma C-1892; host or cells: bovine pancreas
T1 sequence (P30122 19-597): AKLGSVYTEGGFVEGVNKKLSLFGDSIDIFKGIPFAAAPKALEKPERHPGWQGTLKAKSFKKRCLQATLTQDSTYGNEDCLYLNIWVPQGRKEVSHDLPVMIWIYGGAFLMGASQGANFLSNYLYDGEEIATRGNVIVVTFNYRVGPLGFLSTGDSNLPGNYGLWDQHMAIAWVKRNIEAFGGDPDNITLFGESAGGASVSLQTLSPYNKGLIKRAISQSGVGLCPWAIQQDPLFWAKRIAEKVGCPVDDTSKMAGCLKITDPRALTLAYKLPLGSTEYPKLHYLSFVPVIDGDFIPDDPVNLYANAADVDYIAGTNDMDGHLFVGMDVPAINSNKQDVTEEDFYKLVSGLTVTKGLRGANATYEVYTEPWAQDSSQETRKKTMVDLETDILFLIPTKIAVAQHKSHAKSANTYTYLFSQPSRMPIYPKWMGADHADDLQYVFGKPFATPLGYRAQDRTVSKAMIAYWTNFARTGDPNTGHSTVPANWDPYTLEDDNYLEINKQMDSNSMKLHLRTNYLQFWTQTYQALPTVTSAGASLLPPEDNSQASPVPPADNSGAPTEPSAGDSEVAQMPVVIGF
Experimental: The ability of the compounds of this invention to inhibit the formation of cholesteryl esters and thereby interfere with and prevent assimilation of cholesterol into the lymphatic system and ultimately the blood stream was established by incubating the compounds at 37° C. with a mixture of cholesterol and oleic acid in the presence of buffered cholesterol esterase [([…]) Sigma No. C-1892, from bovine pancreas] and measuring the amount of ester formed, according to the procedure of Field, J. of Lipid Research, 25 389 (1984).

[2] = test system: Absorption of ^14 C-Chol.; test: In vivo cholesterol absorption study in normal rats, serum radioactivity after oral [4-^14 C] cholesterol; conditions: suspended in olive oil, normal rat, 6 hr
Experimental: The in vivo cholesterol absorption studies were conducted in normal rats by oral administration of the compound being tested suspended in olive oil followed by oral administration of [4-^14 C] cholesterol in propylene glycol, otherwise following the procedure of Cayen et al., J. Lipid Res. 20 162 (1979). The serum radioactivity was measured at six hours after dosing. The results of this study are reported in the following Table, where available, as percent decrease compared to control.

[3] = 37° C., cholesterol and oleic acid, buffered cholesterol esterase from bovine pancreas, read-out: IC50 Against CEH (concentration that inhibits one-half of the ester formation)

IC50 [1, 3] [µM]	SMILES	Effects on Absorption of ^14 C-Chol., percent decrease compared to control ([2]; 250 mg/kg) [%]	IC50 [1] [µM]	Effects on Absorption of ^14 C-Chol., percent decrease compared to control ([2]; 100 mg/kg) [%]
0.08	O=C(Oc1ccccc1-c1ccccc1)N1CCCCC1 [Example 7, 1-Piperidinecarboxylic acid[1,1'-biphenyl]-2-yl ester]	19		
	CCCCCCCCNC(=O)Oc1ccccc1-c1ccccc1 [Example 1, Octylcarbamic acid[1.1'-biphenyl]-2-yl ester]		1.5	
	O=C(NCC1CCCCC1)Oc1ccccc1-c1ccccc1 [Example 4, (Cyclohexylmethyl)carbamic acid[1,1'-biphenyl]-2-yl ester]		3	21
	CCCCCCCN(Cc1ccc(CC(C)(C)C)cc1)C(=O)Oc1ccccc1-c1ccccc1 [Example 2, [[4-(2,2-Dimethylpropyl)phenyl]methyl]heptylcarbamic acid[1,1'-biphenyl]-2-yl ester]		100	
53	O=C(Oc1ccccc1-c1ccccc1)N1CCN(c2ccccc2)CC1 [Example 13, 4-Phenyl-1-piperazinecarboxylic acid[1,1'-biphenyl]-2-yl ester]			
	O=C(Oc1ccccc1-c1ccccc1)N1CCOCC1 [Example 10, 4-Morpholinecarboxylic acid[1.1'-biphenyl]-2-yl ester]		26	
	O=C(NC1CCCCC1)Oc1ccccc1-c1ccccc1 [Example 3, Cyclohexylcarbamic acid[1,1'-biphenyl]-2-yl ester]		5	21
	O=C(NCCCCc1ccccc1)Oc1ccccc1-c1ccccc1 [Example 5, (4-Phenylbutyl)carbamic acid[1,1'-biphenyl]-2-yl ester]	46	0.25	
	CN1CCN(C(=O)Oc2ccccc2-c2ccccc2)CC1 [Example 12, 4-Methyl-1-piperazinecarboxylic acid[1,1'-biphenyl]-2-yl ester]		25	
1.9	O=C(Oc1ccccc1-c1ccccc1)N1CCC(c2ccccc2)CC1 [Example 9, 4-Phenyl-1-piperidinecarboxylic acid[1.1'-biphenyl]-2-yl ester]			11
1.2	O=C(Oc1ccccc1-c1ccccc1)N1CCSCC1 [Example 11, 4-Thiomorpholinecarboxylic acid[1.1'-biphenyl]-2-yl ester]			21
38	CC1(C)CCCN(C(=O)Oc2ccccc2-c2ccccc2)C1 [Example 6, 3,3-Dimethyl-1-piperidinecarboxylic acid[1,1'-biphenyl]-2-yl ester]			
0.8	CC1CCN(C(=O)Oc2ccccc2-c2ccccc2)CC1 [Example 8, 4-Methyl-1-piperidinecarboxylic acid[1,1'-biphenyl]-2-yl ester]			

Reference: patent US5190940A, “Cholesterol ester hydrolase inhibitors” (American Home Products Corporation, priority 1991, dated 1993)
